Results: patent publication US8633242B2, “Benzylidene indanones and processes for preparation and use thereof” (Council of Scientific and Industrial Research, priority 2011, dated 2014)

Key:
[1] = test system: PC-3 (prostate); test: Sulphorhodamine B cytotoxicity assay, PC-3; format: cell-based, human; design: key to Human cancer cell lines IC50, PC-3 (prostate): Inactive: inactive, if IC50 > 100 μM; conditions: SRB assay, 48 hours incubation; for IC50: Homo sapiens, read-out: Human cancer cell lines IC50, PC-3 (prostate)
Method: (§1) The benzylidene analogues were evaluated by Sulphorhodamine B Assay as per reported method [Skehan et al., J. Natl. Cancer Inst. 1990, 82, 1107]. The human cancer cell lines procured from National Cancer institute, Frederick, U.S.A. were used in present study. Cells were grown in tissue culture flasks in complete growth medium (RPMI-1640 medium with 2 mM glutamine, pH 7.4 supplemented with 10% fetal bovine serum, 100 μg/ml streptomycin and 100 units/ml penicillin) in a carbon dioxide incubator (37° C., 5% CO2, 90% RH). The cells at subconfluent stage were harvested from the flask by treatment with trypsin (0.05% in PBS (pH 7.4) containing 0.02% EDTA). Cells with viability of more than 98%, as determined by trypan blue exclusion, were used for determination of cytotoxicity. The cell suspension required concentration of cells was prepared in complete growth medium. Stock solution of 2×10^−2 M of compounds were prepared in DMSO and further dilution was carried out complete growth medium containing 50 μg/ml of gentamycin to obtained working test solution of required concentration. In vitro cytotoxicity against various human cancer cell lines was determined using 96-well cell culture plates. The 100 μl of cell suspension was added to each well of the 96-well cell culture plates. The cells were allowed to grow in CO2 incubator (37° C., 5% CO2, 90% RH) for 24 hours. The test materials in complete growth medium (100 μl) were added after 24 hours incubation to the wells containing cell suspension. The plates were further incubated for 48 hours (37° C. in an atmosphere of 5% CO2 and 90% relative humidity) in a carbon dioxide incubator after addition of test material and then the cell growth was stopped by gently layering trichloroacetic acid (50% TCA, 50 μl) on top of the medium in all the wells. The plates were incubated at 4° C. for one hour to fix the cells attached to the bottom of the wells. The liquid of all the wells was gently pipetted out and discarded. The plates were washed five times with distilled water to remove TCA, growth medium low molecular weight metabolites, serum proteins etc. and air-dried. Cell growth was measured by staining with sulforhodamine B dye. The adsorbed dye was dissolved in Tris-HCl Buffer (100 μl/well, 0.01M, pH 10.4) and plates were gently stirred for 10 minutes on a mechanical stirrer. The optical density (OD) was recorded on ELISA reader at 540 nm. 5-Fluorouracil, Paclitaxel (Taxol), Mitomycin-c and Adriamycin were used as positive controls.

[2] = test system: HeLa (Cervix); test: Sulphorhodamine B cytotoxicity assay, HeLa; format: cell-based, human; design: key to Human cancer cell lines IC50, HeLa (Cervix): Inactive: inactive, if IC50 > 100 μM; conditions: SRB assay, 48 hours incubation
Method: as §1

[3] = test system: THP-1 (Leukemia); test: Sulphorhodamine B cytotoxicity assay, THP-1; format: cell-based, human; design: key to Human cancer cell lines IC50, THP-1 (Leukemia): Inactive: inactive, if IC50 > 100 μM; conditions: for Human cancer cell lines IC50, THP-1 (Leukemia) / IC50: SRB assay, 48 hours incubation; for IC50: Homo sapiens, THP-1, read-out: Human cancer cell lines IC50, THP-1 (Leukemia)
Method: as §1

[4] = test system: A549 (Lung); test: Sulphorhodamine B cytotoxicity assay, A549; format: cell-based, human; design: key to Human cancer cell lines IC50, A549 (Lung): Inactive: inactive, if IC50 > 100 μM; conditions: SRB assay, 48 hours incubation; for IC50: Homo sapiens, A549, read-out: Human cancer cell lines IC50, A549 (Lung)
Method: as §1

[5] = test system: MCF-7 (Breast cancer); test: Sulphorhodamine B cytotoxicity assay, MCF-7; format: cell-based, human; design: key to Human cancer cell lines IC50, MCF-7 (Breast cancer): Inactive: inactive, if IC50 > 100 μM; conditions: for IC50: Homo sapiens, MCF7, read-out: Human cancer cell lines IC50, MCF-7 (Breast cancer)
Method: as §1

[6] = test system: tubulin protein; test: In-vitro tubulin polymerisation inhibition assay; format: biochemical; design: key to Tubulin polymerisation inhibition IC50: Inactive: inactive, if IC50 > 10 μM; conditions: for Tubulin polymerisation inhibition IC50 / IC50: tubulin 3 mg/mL, 37° C., 340 nm, 1 h; for IC50: read-out: Tubulin polymerisation inhibition IC50
Method: The tubulin polymerization experiment was performed using ‘assay kit’ (Cytoskeleton USA) following manufacturer's protocol based on the procedure described by of Shelanski et al. (1973) and Lee et al. (1977). Briefly, tubulin protein (3 mg/mL) in tubulin polymerization buffer (80 mM PIPES, pH 6.9, 2 mM MgCl2, 0.5 mM EGTA, 1 mM GTP and 15% glycerol) was placed in pre-warmed 96-well microtiter plates at 37° C. in the presence of test compounds with variable concentrations. All samples were mixed well and polymerization was monitored kinetically at 340 nm every min for 1 h using a Spectramax plate reader. Podophyllotoxin and etoposide were used as positive controls and DMSO as negative control. The IC50 value was determined from dose-dependent analysis and is defined as the concentration that inhibits the rate of polymerization by 50%.
Podophyllotoxin and etoposide, standard tubulin polymerisation inhibitors were used as positive controls.

[7] = test system: DU-145 (prostate); test: Sulphorhodamine B cytotoxicity assay, DU-145; format: cell-based, human; design: key to Human cancer cell lines IC50, DU-145 (prostate): Inactive: inactive, if IC50 > 100 μM; conditions: SRB assay, 48 hours incubation; for IC50: Homo sapiens, DU-145, read-out: Human cancer cell lines IC50, DU-145 (prostate)
Method: as §1

[8] = test system: HCT (Colon); test: Sulphorhodamine B cytotoxicity assay, HCT; format: cell-based, human; design: key to Human cancer cell lines IC50, HCT (Colon): Inactive: inactive, if IC50 > 100 μM; conditions: SRB assay, 48 hours incubation; for IC50: Homo sapiens, read-out: Human cancer cell lines IC50, HCT (Colon)
Method: as §1

Structure (SMILES) | Tubulin polymerisation inhibition IC50 [6] | melting point [°C] | IC50 [6] [µM] | IC50 [1] [µM] | Human cancer cell lines IC50, HeLa (Cervix) [2] | Human cancer cell lines IC50, THP-1 (Leukemia) [3] | IC50 [4] [µM] | anticancer activity against human breast cancer cells (MCF-7), in words [5] | IC50 ([5]; SRB assay, 48 hours incubation) [µM] | Human cancer cell lines IC50, DU-145 (prostate) [7] | IC50 [8] [µM] | IC50 [3] [µM] | inhibition of tubulin polymerisation, in words [6] | Human cancer cell lines IC50, HCT (Colon) [8] | Human cancer cell lines IC50, PC-3 (prostate) [1] | IC50 ([2]; Homo sapiens, HeLa, read-out: Human cancer cell lines IC50, HeLa (Cervix)) [µM] | activity against leukemia cell lines (THP), in words [3] | IC50 [7] [µM] | Human cancer cell lines IC50, A549 (Lung) [4] | Human cancer cell lines IC50, MCF-7 (Breast cancer) ([5]; SRB assay, 48 hours incubation)
COc1cc(C2/C(=C/c3ccc(OC)c(OC)c3OC)C(=O)c3cc(OC)c(OC)c(OC)c32)cc(OC)c1OC (stereo not drawn) [Compound 15, 2-(2″,3″,4″-trimethoxybenzylidene), 3-(3′,4′,5′-trimethoxyphenyl)-4,5,6-trimethoxy, indan-1-one] | Inactive | 163 to 165 |  | 85 | Inactive | Inactive | 93 | potent anticancer activity | 8.88 | Inactive | 79.6 |  |  |  |  |  |  |  |  | 
COc1cc(OC)c(OC)cc1/C=C1\C(=O)c2cc(OC)c(OC)c(OC)c2C1c1cc(OC)c(OC)c(OC)c1 (stereo not drawn) [Compound 16, 2-(2″,4″,5″-trimethoxybenzylidene), 3-(3′,4′,5′-trimethoxyphenyl)-4,5,6-trimethoxy indan-1-one] |  | 203 to 205 | 4.21 | 64.9 | Inactive |  | 87.2 |  | 56.5 | Inactive |  | 81.5 | strong inhibition | Inactive |  |  |  |  |  | 
COc1cc(C2/C(=C/c3cccc4c3OCO4)C(=O)c3cc(OC)c(OC)c(OC)c32)cc(OC)c1OC (stereo not drawn) [Compound 17, 2-(2″,3″-methylenedioxybenzlidene), 3-(3′,4′,5′-trimethoxyphenyl)-4,5,6-trimethoxy indan-1-one] | Inactive | 180 to 182 |  |  | Inactive | Inactive | 82.2 |  | 57.2 | Inactive | 45.9 |  |  |  | Inactive |  |  |  |  | 
COc1cc(C2/C(=C/c3ccc(F)cc3)C(=O)c3cc(OC)c(OC)c(OC)c32)cc(OC)c1OC (stereo not drawn) [Compound 18, 2-(4″-fluorobenzylidene), 3-(3′,4′,5′-trimethoxyphenyl)-4,5,6-trimethoxy indan-1-one] |  | 156 to 158 | 0.73 | 38.6 |  |  | 26.9 | potent anticancer activity | 0.68 |  |  | 2.88 | strong inhibition | Inactive |  | 66.5 | potent activity | 54.1 |  | 

The next lines start with results.

Tubulin polymerisation inhibition IC50 [6] | melting point [°C] | IC50 [6] [µM] | Structure (SMILES) | IC50 [1] [µM] | Human cancer cell lines IC50, HeLa (Cervix) [2] | Human cancer cell lines IC50, THP-1 (Leukemia) [3] | IC50 [4] [µM] | anticancer activity against human breast cancer cells (MCF-7), in words [5] | IC50 ([5]; SRB assay, 48 hours incubation) [µM] | Human cancer cell lines IC50, DU-145 (prostate) [7] | IC50 [8] [µM] | IC50 [3] [µM] | inhibition of tubulin polymerisation, in words [6] | Human cancer cell lines IC50, HCT (Colon) [8] | Human cancer cell lines IC50, PC-3 (prostate) [1] | IC50 ([2]; Homo sapiens, HeLa, read-out: Human cancer cell lines IC50, HeLa (Cervix)) [µM] | activity against leukemia cell lines (THP), in words [3] | IC50 [7] [µM] | Human cancer cell lines IC50, A549 (Lung) [4] | Human cancer cell lines IC50, MCF-7 (Breast cancer) ([5]; SRB assay, 48 hours incubation)
 | 188 to 190 | 0.6 | COc1cc(C2/C(=C/c3ccc(C(F)(F)F)cc3)C(=O)c3cc(OC)c(OC)c(OC)c32)cc(OC)c1OC (stereo not drawn) [Compound 20, 2-(4″-trifluoromethylbenzylidene), 3-(3′,4′,5′-trimethoxyphenyl)-4,5,6-trimethoxy indan-1-one] | 27.9 | Inactive |  | 61.5 |  | 68.9 | Inactive | 92 | 8.67 | strong inhibition |  |  |  | potent activity |  |  | 
 | 191 to 192 | 3.04 | COc1ccc(/C=C2\C(=O)c3cc(OC)c(OC)c(OC)c3C2c2cc(OC)c(OC)c(OC)c2)c(OC)c1 (stereo not drawn) [Compound 21, 2-(2″,4″-dimethoxybenzylidene), 3-(3′,4′,5′-trimethoxyphenyl)-4,5,6-trimethoxy indan-1-one] | 71.7 | Inactive | Inactive | 71.6 | potent anticancer activity | 1 |  | 11.1 |  | strong inhibition |  |  |  |  | 2.04 |  | 
Inactive | 188 to 190 |  | COc1cc(C2/C(=C/c3ccc(OCc4ccccc4)cc3)C(=O)c3cc(OC)c(OC)c(OC)c32)cc(OC)c1OC (stereo not drawn) [Compound 22, 2-(4″-benzyloxybenzylidene), 3-(3′,4′,5′-trimethoxyphenyl)-4,5,6-trimethoxy indan-1-one] | 78.9 | Inactive | Inactive |  |  |  |  |  |  |  | Inactive |  |  |  | 78.9 | Inactive | Inactive
